This is an account of results in patent US20250179028A1, “ACRYLAMIDE COMPOUNDS” (NRG THERAPEUTICS LTD, priority 2022, published 2025).

One data set concerns the target CYP2D6 (Homo sapiens (Human), UniProt P10635). Put plainly: Cytochrome P450 CYP2D6 inhibition in human liver microsomes. The class given is in vitro ADME. The note with it: probe dextromethorphan 2 µM (dextrorphan formation); 1 uM test compound, human liver microsomes; average value from two experiments; negative values = no effective inhibition. The method, then:
Studies to assess tested compound mediated inhibition of cytochrome P450 enzyme isoform CYP2D6 were performed using human liver microsomes (BD Gentest) using either a single concentration (1 μM) of test compound or concentration response (0.1, 0.3, 1, 3, 10 and 30 μM) to derive an IC50. Tested compound solutions were prepared from 10 mM stocks in DMSO and diluted to 200 μM in DMSO. Reactions were prepared in a 96 deep well plate by combining 1 μl test compound with 179 μl reaction mixture (100 mM phosphate buffered saline (PBS), 0.2 mg/mL microsomes and 2 μM Dextromethorphan prepared from stocks as detailed below).
The positive control inhibitor, quinidine, was used at a final concentration of 0.5 μM when used at a single concentration. The final concentrations of quinidine used to derive an IC50 were 0, 0.1, 0.3, 1, 3, 10 and 30 μM. Plates were warmed at 37° C. for 15 min before starting reactions with 20 μl 10 mM NADPH solution in PBS and incubated for 20 min at 37° C. The assay is performed in duplicate. Reactions were quenched with 200 μl cold acetonitrile containing internal standards (200 nM labetalol, 200 nM alprazolam and 100 nM tolbutamide). The plate was centrifuged at 4000 rpm for 30 minutes, placed on ice for 20 minutes and then centrifuged at 4000 rpm for 30 minutes again to precipitate protein. 100 μL of the supernatant was transferred to a new plate and diluted with 100 μL pure water before being analysed using UPLC/MS/MS. The products of the transformation for dextromethorphan to dextrorphan was monitored by UPLC-MS/MS. The inhibition of CYP2D6 in human liver microsomes was measured as the percentage decrease in the activity of dextrorphan formation compared to non-inhibited controls (=100% activity). The IC50 value was calculated (test compound concentration which produces 50% inhibition) by using Excel Xlfit.

The subject of a further data set is mPTP. Put plainly: mPTP activity (Ca2+ retention) assay in isolated rat liver mitochondria. The settings on record: isolated rat liver mitochondria; average value from multiple experiments (n ≥ 2). The class given is biochemical. An excerpt: Pharmacological inhibition or modulation of the mPTP can be measured in well characterised ‘Ca^2+ retention’ assays performed in isolated mitochondria. In vitro isolated mitochondria rapidly sequester exogenous Ca^2+ until the intramitochondrial Ca^2+ concentration reaches the threshold for mPTP activation. Once the pore is activated, mitochondrial integrity is compromised and the stored Ca^2+ is released. The distribution of Ca^2+ between extra- and intra-mitochondrial compartments can be measured in real time with the use of membrane-impermeant Ca^2+ sensitive fluorescent dyes. Depending on the configuration of the assay, inhibition or modulation of the mPTP either delays the opening of the pore or increases the concentration of Ca^2+ required to induce mPTP opening.
MPTP activity was measured in mitochondria freshly isolated from female Sprague Dawley (250 to 300 gram) rat livers using the following method. Cervical dislocation was performed on the rat. The liver was then perfused in-situ with ˜40 ml cold Dulbecco's Phosphate Buffered Saline (DPBS) prior to dissection and transferred into 30 ml Isolation Buffer (250 mM Sucrose, 10 mM KCl, 1 mM EGTA, 1 mM EDTA, 25 mM HEPES, adjusted to pH 7.5 with 1 M NaOH). Each lobe of the liver was then removed from the buffer, minced using tweezers and a scalpel into ˜5 mm pieces then transferred into a 50 ml Potterton dounce homogenization tube on ice containing 30 ml ice-cold centrifugation buffer (300 mM Trehalose, 25 mM HEPES, 1 mM EGTA, 1 mM EDTA, 10 mM KCl, adjusted to pH 7.5 with 1 M NaOH and supplemented with 0.1% bovine serum albumin (BSA) and complete protease inhibitor cocktail (one tablet of inhibitor per 50 mls of buffer). Homogenisation was carried out using a teflon pestle at 1800 rpm. The slurry was centrifuged at 800 g for 10 min at 4° C., then the supernatant centrifuged at 10,000 g for 10 min. The pellet was washed once with FLIPR assay buffer (75 mM Mannitol, 25 mM Sucrose, 5 mM Potassium Phosphate Monobasic, 20 mM Tris base, 100 mM KCl, 0.1% BSA adjusted to pH 7.4 with 5M HCl) centrifuged again, then resuspended in FLIPR assay buffer to a concentration of 8.8 mg/ml protein.
Tested compounds (10 mM stock in DMSO) were serially diluted in DMSO in half log steps to generate 10 test concentrations (final concentrations in assay 30 μM to 1 nM). An intermediate dilution of 5 μl DMSO samples into 247 μl FLIPR assay buffer was carried out prior to transfer of 5 μl into duplicate wells of a 384 well polypropylene assay plate. Control wells were 0.5% (v/v) DMSO and 5 μM cyclosporin A.
A stock mitochondria/Fluo5N assay solution was prepared in 5.6 ml FLIPR assay buffer (at RT) supplemented with succinate disodium salt (10 mM), rotenone (1 μM), Fluo5N pentapotassium salt (2 μM) and 1 ml mitochondria suspension, then transferred (15 μl) into the assay plate containing test compounds and incubated for 10 min at RT. Assay plates were then transferred to a FLIPR Tetra plate reader (Molecular Devices). Dye fluorescence was then measured every 3 sec for a total of 10 min. After 12 sec, a 2.5 μl bolus of CaCl2 (75 μM) was added from a source plate containing 675 μM CaCl2 in FLIPR assay buffer. IC50 values for tested compounds were calculated using the fluorescence value collected at the 10 min timepoint with % inhibition calculated using the DMSO control and cyclosporin A values as […] respectively.

Data set [1] is described as follows: PBS and FaSSIF solubility. Format: physicochemical. The settings on record: aqueous buffer, kinetic from dmso stock; PBS pH 7.4, 2 hr at 25° C.; read-out: Solubility PBS (pH 7.4). The method, then:
Test compounds were prepared as 10 mM stocks in DMSO and 15 μl samples transferred in duplicate into 1.5 mL glass flat bottom vials (BioTech Solutions). Fasted state simulated intestinal fluid (FaSSIF) or PBS (pH 7.4) was added to each vial to final volume of 500 μl. One PTFE encapsulated stir stick (V&P Scientific) was placed in each vial before sealing with PTFE/SIL plugs (BioTech Solutions). Vials were shaken at 1100 rpm for 2 hr at 25° C. Samples were then filtered through MultiScreen Solvinert filter plates (Millipore) via vacuum filtration. Aliquots of filtrate (5 μl) plus 5 μl DMSO were diluted in 490 μl 50% acetonitrile in water containing internal standard. The filtrate was analysed and quantified against a standard of known concentration using LC-MS/MS. Solubility values of the test compound and control compound were calculated as follows: […]

By inhibition is commonly meant the change of the read-out against control, counted positive when it falls. Broadly, the solubility is the dissolved amount per volume that the medium holds.

Values after ≈ are worked out from the molar mass of the structure shown.

Sequence of CYP2D6 (P10635 whole entry, canonical isoform): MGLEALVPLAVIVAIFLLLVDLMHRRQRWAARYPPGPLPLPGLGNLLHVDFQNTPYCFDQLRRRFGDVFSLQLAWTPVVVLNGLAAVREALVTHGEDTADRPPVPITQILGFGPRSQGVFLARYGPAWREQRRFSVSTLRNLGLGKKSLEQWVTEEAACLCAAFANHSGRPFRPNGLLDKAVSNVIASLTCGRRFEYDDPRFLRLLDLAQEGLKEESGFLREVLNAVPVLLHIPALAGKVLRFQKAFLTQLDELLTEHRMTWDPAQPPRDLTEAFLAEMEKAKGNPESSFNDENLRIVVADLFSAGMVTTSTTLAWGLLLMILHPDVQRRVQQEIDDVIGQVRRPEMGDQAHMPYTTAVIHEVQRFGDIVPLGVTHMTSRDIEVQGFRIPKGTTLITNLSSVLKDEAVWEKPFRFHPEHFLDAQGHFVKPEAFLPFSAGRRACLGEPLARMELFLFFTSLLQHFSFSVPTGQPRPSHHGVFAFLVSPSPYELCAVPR

With `Cc1c(F)cccc1NC(=O)/C=C/c1ccc2c(c1)NC(=O)C2(C)C` [Example 3, (E)-3-(3,3-dimethyl-2-oxoindolin-6-yl)-N-(3-fluoro-2-methylphenyl)acrylamide], the inhibition at 20 min, 1 µM at CYP2D6 was -1.87%. Moreover, the “mPTP Rat liver pIC50” value in the data set on mPTP was found to be 6.4. Also, in data set [1], the solubility at 2 h came out at 1.75 µM (≈ 0.592 µg/mL).

In the case of `Cc1c(F)cccc1NC(=O)/C=C/c1ccc2c(c1)NC(=O)C21CC1` [Example 4, (E)-N-(3-fluoro-2-methylphenyl)-3-(2′-oxospiro[cyclopropane-1,3′-indolin]-6′-yl)acrylamide], the inhibition at 20 min, 1 µM against CYP2D6 was determined as 2.89%. In addition, in the data set with mPTP, the “mPTP Rat liver pIC50” value amounted to 6.5. For the same compound, the solubility at 2 h in data set [1] amounted to 0.31 µM (≈ 0.104 µg/mL).

`Cc1c(Cl)cccc1NC(=O)/C=C/c1ccc2oc(=O)[nH]c2c1` [Example 9, (E)-N-(3-chloro-2-methylphenyl)-3-(2-oxo-2,3-dihydrobenzo[d]oxazol-5-yl)acrylamide]: the inhibition at 20 min, 1 µM at CYP2D6 was -2.59%. In addition, the “mPTP Rat liver pIC50” value with mPTP was 7.4. The solubility at 2 h in data set [1] came to 0.6 µM (≈ 0.197 µg/mL).

Take `CC(C)c1ccccc1NC(=O)/C=C/c1ccc2oc(=O)[nH]c2c1` [Example 13, (E)-N-(2-isopropylphenyl)-3-(2-oxo-2,3-dihydrobenzo[d]oxazol-5-yl)acrylamide]: the inhibition at 20 min, 1 µM against CYP2D6 worked out at 3.84%. The “mPTP Rat liver pIC50” value in the data set on mPTP worked out at 6.0. Also, in data set [1], the solubility at 2 h stood at 5.3 µM (≈ 1.71 µg/mL).

Take `Cc1cccc(C(C)C)c1NC(=O)/C=C/c1ccc2oc(=O)[nH]c2c1` [Example 14, (E)-N-(2-isopropyl-6-methylphenyl)-3-(2-oxo-2,3-dihydrobenzo[d]oxazol-5-yl)acrylamide]: at CYP2D6, the inhibition at 20 min, 1 µM is -0.52%. In the data set with mPTP, the “mPTP Rat liver pIC50” value was 6.5. In addition, the solubility at 2 h in data set [1] was determined as 16 µM (≈ 5.38 µg/mL).

As to `CC(C)c1ccc(Cl)cc1NC(=O)/C=C/c1ccc2oc(=O)[nH]c2c1` [Example 15, (E)-N-(5-chloro-2-isopropylphenyl)-3-(2-oxo-2,3-dihydrobenzo[d]oxazol-5-yl)acrylamide], the inhibition at 20 min, 1 µM against CYP2D6 was -0.28%. Also, in the data set with mPTP, the “mPTP Rat liver pIC50” value worked out at 6.9. Besides, in data set [1], the solubility at 2 h was 0.03 µM (≈ 0.0107 µg/mL).

For `Cc1ccc(F)cc1NC(=O)/C=C/c1ccc2oc(=O)[nH]c2c1` [Example 17, (E)-N-(5-fluoro-2-methylphenyl)-3-(2-oxo-2,3-dihydrobenzo[d]oxazol-5-yl)acrylamide], the inhibition at 20 min, 1 µM against CYP2D6 was determined as 1.91%. Moreover, the solubility at 2 h in data set [1] was found to be 0.15 µM (≈ 0.0468 µg/mL).

Take `Cc1n[nH]c2cc(/C=C/C(=O)NC3c4ccccc4CC3C)ccc12` (stereo not drawn) [Example 38, (E)-3-(3-methyl-1H-indazol-6-yl)-N-(2-methyl-2,3-dihydro-1H-inden-1-yl)acrylamide]: the inhibition at 20 min, 1 µM against CYP2D6 was found to be 7.3%. Also, in the data set with mPTP, the “mPTP Rat liver pIC50” value came to 7.2.

As for `Cc1n[nH]c2cc(/C=C/C(=O)Nc3cccc4cnn(C)c34)ccc12` [Example 39, (E)-3-(3-methyl-1H-indazol-6-yl)-N-(1-methyl-1H-indazol-7-yl)acrylamide], the inhibition at 20 min, 1 µM at CYP2D6 came to 3.83%. Also, in the data set with mPTP, the “mPTP Rat liver pIC50” value is 7.5.

Consider `Cc1n[nH]c2cc(/C=C/C(=O)NC3CCc4cc(F)ccc43)ccc12` (stereo not drawn) [Example 40, (E)-N-(5-fluoro-2,3-dihydro-1H-inden-1-yl)-3-(3-methyl-1H-indazol-6-yl)acrylamide], for which the inhibition at 20 min, 1 µM on CYP2D6 is 6.65%. Also, the “mPTP Rat liver pIC50” value in the data set with mPTP is 6.6.

In the case of `Cc1cc(NC(=O)/C=C/c2ccc3c(C)n[nH]c3c2)ccc1F` [Example 41, (E)-N-(4-fluoro-3-methylphenyl)-3-(3-methyl-1H-indazol-6-yl)acrylamide], on CYP2D6, the inhibition at 20 min, 1 µM stood at 1.2%. Moreover, the “mPTP Rat liver pIC50” value with mPTP came out at 7.1.

As to `Cc1ccc(NC(=O)/C=C/c2ccc3c(C)n[nH]c3c2)cc1F` [Example 42, (E)-N-(3-fluoro-4-methylphenyl)-3-(3-methyl-1H-indazol-6-yl)acrylamide], the inhibition at 20 min, 1 µM against CYP2D6 was -1.97%. The “mPTP Rat liver pIC50” value in the data set with mPTP was 6.1.

Regarding `CC1Cc2ccccc2C1NC(=O)/C=C/c1ccc2c(C#N)n[nH]c2c1` (stereo not drawn) [Example 44, (E)-3-(3-cyano-1H-indazol-6-yl)-N-(2-methyl-2,3-dihydro-1H-inden-1-yl)acrylamide], the inhibition at 20 min, 1 µM against CYP2D6 turned out to be 8.94%. Further, in the data set with mPTP, the “mPTP Rat liver pIC50” value is 7.1.

In the case of `Cc1c(Cl)cccc1N(C)C(=O)/C=C/c1ccc2oc(=O)[nH]c2c1` [Example 48, (E)-N-(3-chloro-2-methylphenyl)-N-methyl-3-(2-oxo-2,3-dihydrobenzo[d]oxazol-5-yl)acrylamide], the inhibition at 20 min, 1 µM at CYP2D6 was found to be 6.34%. For the same compound, the “mPTP Rat liver pIC50” value in the data set on mPTP turned out to be 5.9.

Regarding `CC1CCCC1NC(=O)/C=C/c1ccc2oc(=O)[nH]c2c1` (stereo not drawn) [Example 49, (E)-N-(2-methylcyclopentyl)-3-(2-oxo-2,3-dihydrobenzo[d]oxazol-5-yl)acrylamide], at CYP2D6, the inhibition at 20 min, 1 µM came to 4.52%. Further, in the data set with mPTP, the “mPTP Rat liver pIC50” value came to 5.8.
